In data set [1] the test system is KBV. As to the kind of experiment: Induction of cell cycle arrest in human KBV cells assessed as accumulation of cells at G2/M phase at 10 uM incubated for 24 hrs by PI staining based flow cytometry analysis. The data set is classed as functional.
Data set [2] concerns KBV. As to the kind of experiment: Induction of apoptosis in human KBV cells in presence of paclitaxel incubated for 24 hrs by PI staining based flow cytometry analysis. It counts as functional, cell-based. To be noted: dose 2.5-10 µM.
Data set [3] is described as follows: Sensitization of paclitaxel-induced cytotoxicity against human KBV cells assessed as fold change in paclitaxel IC50 at 2.5 uM incubated for 72 hrs by MTT assay relative to paclitaxel alone. The data set is classed as functional.
Data set [4] can be described thus: Sensitization of vincristine -induced cytotoxicity against human KBV cells assessed as fold change in vincristine IC50 at 10 uM incubated for 72 hrs by MTT assay relative to vincristine alone. It counts as functional. A general note: Tetrazolium assays rely on reduction of a dye to a coloured formazan, in cell work by metabolically active cells.
The subject of data set [5] is KBV. As to the kind of experiment: Induction of cell cycle arrest in human KBV cells assessed as accumulation of cells at G2/M phase in presence of paclitaxel incubated for 24 hrs by PI staining based flow cytometry analysis. It counts as functional. To be noted: dose 2.5-10 µM. (In flow cytometry, cells or beads pass a laser one at a time.)
A short description of data set [6]: Sensitization of paclitaxel-induced cytotoxicity against human KBV cells assessed as fold change in paclitaxel IC50 at 10 uM incubated for 72 hrs by MTT assay relative to paclitaxel alone. It counts as functional.
For data set [7], the system named is KBV. Put plainly: Induction of Rh123 accumulation in human KBV cells at 10 uM incubated for 150 mins by flow cytometry analysis. It counts as functional, cell-based.
Data set [8] is described as follows: Drug accumulation in human KBV cells expressing p-glycoprotein at 10 uM measured after 4 hrs by UPLC-MS analysis. It counts as ADME, cell-based.
Data set [9] is described as follows: Cytotoxicity against human KBV cells assessed as paclitaxel induced cytotoxicity by measuring cell survival at 10 uM measured after 72 hrs by MTT assay relative to control. It counts as functional.
Data set [10] can be described thus: Sensitization of paclitaxel-induced cytotoxicity against human KBV cells assessed as fold change in paclitaxel IC50 at 5 uM incubated for 72 hrs by MTT assay relative to paclitaxel alone. The data set is classed as functional.
The test system of another data set is KBv200. As to the kind of experiment: Effect on p-glycoprotein expression level in human KBv200 cells at 2.5 to 10 uM measured after 4 hrs by Western blot analysis. The data set is classed as functional, cell-based. To be noted: dose 2.5-10 µM. In general terms: Immunoblotting shows a protein as a band on a membrane.
Data set [11] relates to KBV. As to the kind of experiment: Induction of cell cycle arrest in human KBV cells assessed as accumulation of cells at G2/M phase at 10 uM in presence of paclitaxel incubated for 24 hrs by PI staining based flow cytometry analysis. The data set is classed as functional.
Data set [12] can be described thus: Drug accumulation in human KB cells […] at 10 uM measured after 4 hrs by UPLC-MS analysis. It counts as ADME, cell-based.
A short description of data set [13]: Aqueous solubility of the compound in deionized water measured after 24 hrs by UV-vis spectrophotometric analysis. It counts as physicochemical. To be noted: buffer.
In data set [14] the target is ATP-dependent translocase ABCB1 (Homo sapiens, UniProt P08183). As to the kind of experiment: Induction of thermal stabilization of p-glycoprotein in human KBV cells at 50 uM pre-treated with cells for 24 hrs and measured after 2 hrs by CESTA. It counts as cell-based. To be noted: 26 h.
Chain of ATP-dependent translocase ABCB1 (P08183 whole entry): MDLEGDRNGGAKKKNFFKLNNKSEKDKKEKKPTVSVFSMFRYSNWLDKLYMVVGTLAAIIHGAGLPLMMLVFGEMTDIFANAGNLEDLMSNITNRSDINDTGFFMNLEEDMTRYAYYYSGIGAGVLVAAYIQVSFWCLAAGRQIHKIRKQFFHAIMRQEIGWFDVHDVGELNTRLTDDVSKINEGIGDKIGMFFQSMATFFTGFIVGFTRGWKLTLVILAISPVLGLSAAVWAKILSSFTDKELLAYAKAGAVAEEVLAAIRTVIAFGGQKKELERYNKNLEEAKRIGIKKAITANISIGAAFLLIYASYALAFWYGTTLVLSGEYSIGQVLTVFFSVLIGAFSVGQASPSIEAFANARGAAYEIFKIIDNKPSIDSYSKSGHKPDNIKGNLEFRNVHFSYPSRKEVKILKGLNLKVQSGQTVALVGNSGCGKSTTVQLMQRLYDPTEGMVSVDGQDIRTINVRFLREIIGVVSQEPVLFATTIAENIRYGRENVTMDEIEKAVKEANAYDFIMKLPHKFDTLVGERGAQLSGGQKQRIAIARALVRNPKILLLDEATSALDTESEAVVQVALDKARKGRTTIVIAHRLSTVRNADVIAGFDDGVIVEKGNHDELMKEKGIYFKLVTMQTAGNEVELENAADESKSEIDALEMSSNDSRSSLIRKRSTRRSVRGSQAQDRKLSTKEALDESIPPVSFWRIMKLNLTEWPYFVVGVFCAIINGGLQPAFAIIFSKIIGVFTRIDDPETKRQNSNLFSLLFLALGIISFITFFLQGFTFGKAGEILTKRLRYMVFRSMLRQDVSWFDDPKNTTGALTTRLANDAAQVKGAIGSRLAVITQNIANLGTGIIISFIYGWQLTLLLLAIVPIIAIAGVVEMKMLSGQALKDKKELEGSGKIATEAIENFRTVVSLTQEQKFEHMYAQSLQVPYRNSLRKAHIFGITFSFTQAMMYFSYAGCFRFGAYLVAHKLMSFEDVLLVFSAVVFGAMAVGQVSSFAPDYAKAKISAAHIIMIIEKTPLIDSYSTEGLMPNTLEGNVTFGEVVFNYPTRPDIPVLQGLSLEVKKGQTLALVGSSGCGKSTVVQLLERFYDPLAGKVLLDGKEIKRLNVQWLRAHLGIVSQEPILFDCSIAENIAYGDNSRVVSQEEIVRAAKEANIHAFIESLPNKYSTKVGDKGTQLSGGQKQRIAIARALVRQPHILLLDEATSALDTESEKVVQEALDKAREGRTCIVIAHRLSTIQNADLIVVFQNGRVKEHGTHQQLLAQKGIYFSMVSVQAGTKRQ
For data set [15], the system named is KBV. Put plainly: Anti-tumor activity against human KBV cells xenografted in male BALB/c nude mouse assessed as reduction in tumor volume at 10 mg/kg administered once daily for 18 days. The data set is classed as functional, organism-based. As to conditions: time 18.0 day.
Data set [16] can be described thus: Sensitization of vincristine -induced cytotoxicity against human KBV cells assessed as fold change in vincristine IC50 at 2.5 uM incubated for 72 hrs by MTT assay relative to vincristine alone. It counts as functional.
Data set [17] can be described thus: Reversal of multi-drug resistance in human KBV cells assessed as paclitaxel induced cytotoxicity by measuring cell survival at 10 uM measured after 72 hrs by MTT assay relative to control. The data set is classed as functional.
The nature of data set [18]: Sensitization of vincristine -induced cytotoxicity against human KBV cells assessed as fold change in vincristine IC50 at 5 uM incubated for 72 hrs by MTT assay relative to vincristine alone. It counts as functional.
The subject of data set [19] is KBV. As to the kind of experiment: Anti-tumor activity against human KBV cells xenografted in male BALB/c nude mouse assessed as reduction in tumor volume at 30 mg/kg administered every days for 18 days. The data set is classed as functional, organism-based. To be noted: time 18.0 day.
Data set [20] can be described thus: Cytotoxicity against human KBV cells incubated for 72 hrs by MTT assay. The data set is classed as functional, cell-based.

Active and inactive are the calls of the source. No cut-off for these calls is given here.

Here are results for three molecules from ChEMBL document CHEMBL6109086, “Discovery and biological evaluation of hederagenin derivatives as non-substrate inhibitors of P-glycoprotein-mediated multidrug resistance” (Eur J Med Chem, 2025).

One may read the IC50 as the concentration that inhibits the measured activity by half. The low end stands for greater potency, the high end for weaker potency.

`CC1(C)CC[C@]2(C(=O)NCCCC(=O)OCCOCCOCCOCCOCCOCCO)CC[C@]3(C)C(=CC[C@@H]4[C@@]5(C)Cc6nccnc6[C@@](C)(CO)[C@@H]5CC[C@]43C)[C@@H]2C1`: the result in the data set on KBV [1], in the data set with KBv200 and in the data set on KBV [15] was inactive. The Activity result with KBV [2] is “Dose-dependent-effect”; with KBV [5] it was “Dose-dependent-effect”; in [9] it was 86%; in data set [14], “Active”; in data set [17] it was 17.01%. The “fold change (FC)” value came to 2.72 in [3]; 14.41 in [4]; 103.51 in data set [6]; 6.12 in [10]; 2.43 in data set [16]; 6.09 in data set [18]. Also, the outcome with KBV [7] and in the data set with KBV [11] was Active. Moreover, the Drug uptake entry in data set [8] and in [12] was “Active” in each case. Moreover, the solubility result in [13] was “soluble”.

Turning to `CC(=O)O[C@H]1C(=O)[C@@]2(C)[C@H]([C@H](OC(=O)c3ccccc3)[C@]3(O)C[C@H](OC(=O)[C@H](O)[C@@H](NC(=O)c4ccccc4)c4ccccc4)C(C)=C1C3(C)C)[C@]1(OC(C)=O)CO[C@@H]1C[C@@H]2O` [PACLITAXEL], the Activity in [9] amounted to 106%. In addition, the outcome in the data set with KBV [19] was inactive. Further, in data set [20], inhibition was half-maximal at 701 nM (IC50).

Turning to `CC1(C)CC[C@]2(C(=O)OCc3ccccc3)CC[C@]3(C)C(=CC[C@@H]4[C@@]5(C)Cc6nccnc6[C@@](C)(CO)[C@@H]5CC[C@]43C)[C@@H]2C1`, in data set [13], the solubility result is reported as “soluble”. Also, the Activity in [17] was 18.17%.
